Eight molecules from patent US8809338B2, “1,2,3-triazole-based peptidomimetic integrin inhibitors for the diagnosis and therapy of tumors” (Universita' Degli Studi di Firenze, priority 2010, dated 2014) can be followed below.

One test concerns the target T1, αvβ3 integrin (Homo sapiens, UniProt P05106+P06756).
T1 construct: purified from human placenta; from tissue; host or cells: human placenta
Nature of the test: Solid-phase receptor binding assay, [125I]-Echistatin competition, αvβ3. To be noted: for IC50: αvβ3 purified from human placenta, competition with [125I]-Echistatin. The method, then:
Solid-phase receptor binding assay. [^125I]-Echistatin, labelled according to the lactoperoxidase method and with a specific activity of 2000 Ci/mmol, and αvβ3 and αvβ5 integrins, purified from human placenta, are used for the in vitro assays. Purified αvβ3 and αvβ5 receptors are respectively diluted to 500 ng/mL and 1000 ng/mL in 20 mM Tris (pH 7.4), 150 mM NaCl, 2 mM CaCl2, 1 mM MgCl2, 1 mM MnCl2. An amount of the diluted receptor solutions (100 μL/well) is added to a 96-well microtiter plate (Optiplate-96 HB, PerkinElmer Life Sciences, Boston, Mass.) and incubated at 4° C. for 16 h. Then, the plate is washed once with an incubation buffer [20 mM Tris (pH 7.4), 150 mM NaCl, 2 mM CaCl2, 1 mM MgCl2, 1 mM MnCl2, 1% BSA] and incubated for additional 2 h at room temperature. The plate is treated twice with the same buffer, and competitive binding experiments are carried out with a fixed concentration of [^125I]-Echistatin (0.05 nM and 0.1 nM for αvβ3 and αvβ5 respectively) and concentrations of the test compounds ranging from 0.01 nM to 100 μM. All the assays are carried out in triplicate at a final volume of 0.2 mL, each containing the following species: 0.05 mL of [^125I]-Echistatina, 0.04 mL of the test compounds, and 0.11 mL of the incubation buffer. Non-specific binding is defined as the [^125I]-Echistatin bound in the presence of excess (1 μM) of non-labelled echistatin. After an incubation period of 3 h at room temperature, the plate is washed three times with the incubation buffer, then the radioactivity is measured in a plate counter Top-Count NXT (Perkin Elmer Life Sciences, Boston, Mass.) using 200 μL/well of scintillating liquid MicroScint-40 (PerkinElmer Life Sciences, Boston, Mass.). Data analysis. IC50 values are determined by fitting the binding inhibition data with a non-linear regression, using the GraphPad Prism 4.0 software package (GraphPad Prism, San Diego, Calif.). […] The inhibition curves better fitted according to a two-sites model (p<0.05) rather than a single-site model are considered to be significant.

The next test deals with T2, αvβ5 integrin (Homo sapiens, UniProt P06756+P18084).
T2 construct: purified from human placenta; from tissue; host or cells: human placenta
Nature of the test: Solid-phase receptor binding assay, [125I]-Echistatin competition, αvβ5. The conditions noted are these: αvβ5 purified from human placenta; competition with [125I]-Echistatin. The procedure: Solid-phase receptor binding assay. [^125I]-Echistatin, labelled according to the lactoperoxidase method and with a specific activity of 2000 Ci/mmol, and αvβ3 and αvβ5 integrins, purified from human placenta, are used for the in vitro assays. Purified αvβ3 and αvβ5 receptors are respectively diluted to 500 ng/mL and 1000 ng/mL in 20 mM Tris (pH 7.4), 150 mM NaCl, 2 mM CaCl2, 1 mM MgCl2, 1 mM MnCl2. An amount of the diluted receptor solutions (100 μL/well) is added to a 96-well microtiter plate (Optiplate-96 HB, PerkinElmer Life Sciences, Boston, Mass.) and incubated at 4° C. for 16 h. Then, the plate is washed once with an incubation buffer [20 mM Tris (pH 7.4), 150 mM NaCl, 2 mM CaCl2, 1 mM MgCl2, 1 mM MnCl2, 1% BSA] and incubated for additional 2 h at room temperature. […] After an incubation period of 3 h at room temperature, the plate is washed three times with the incubation buffer, then the radioactivity is measured in a plate counter Top-Count NXT (Perkin Elmer Life Sciences, Boston, Mass.) using 200 μL/well of scintillating liquid MicroScint-40 (PerkinElmer Life Sciences, Boston, Mass.). […] IC50 values are determined by fitting the binding inhibition data with a non-linear regression, using the GraphPad Prism 4.0 software package (GraphPad Prism, San Diego, Calif.). […]

In the next test the test system is A375M melanoma cell line. Nature of the test: Melanoma cell line assay, inhibition of cell adhesion to RGD-containing substrates. The conditions noted are these: compounds at 10, 1.0 and 0.1 μM, FIG. 3. It counts as cell-based, human. The method, then:
A series of experiments carried out using the flux cytometry technique and specific monoclonal antibodies, allowed for the setup of particular human melanoma cells characterized by an over-expression of integrin receptors. Such cells have been used to test the capability of selected compounds of formula (I) at 10, 1.0 and 0.1 μM concentrations, of inhibiting the binding between these cells and suitable substrates containing the RGD sequence, such as vitronectin, fibronectin, and osteopontin (FIG. 3).
Melanoma cell line assay. The selected cell line for this study is the A375M, which are in vivo selected melanoma cells starting from A375P cells isolated from a amelanotic human melanoma. The expression of the RGD-dependent integrinic pattern, comprising αvβ3, αvβ5, α5β1 integrins, of A375M cells is determined by the flux cytometry technique (FACScanto, Becton & Dickinson) and by RT-PCR. With aim to evaluate the ability of compounds of formula (I) of binding to integrins exposed to the melanoma cells surface, the inhibition of adhesion of such cells to vitronectin, fibronectin and osteopontin are measured. A spectrophotometric evaluation of the cellular content of the culture plates used in the adhesion tests allows for the precision and the correlation of the results obtained in different experiments.

“Also recorded” adds a separate entry of the source.

Regarding `N=C(N)NCCCc1cn(CC(=O)N[C@@H](CC(=O)O)c2ccccc2)nn1` [Compound 38], the IC50 on αvβ3 integrin stood at 16.4 nM; on αvβ5 integrin it was 1020 nM.
Turning to `N=C(N)NCCCc1cn(CC(=O)NC(CC(=O)O)c2ccc(F)cc2)nn1` (centres unmarked) [Compound 48], in the test with A375M melanoma cell line, the “inhibition of adhesion of melanoma cells to fibronectin” value is “minor effect”, the “inhibition of binding of melanoma cells to osteopontin” value is on record as “significantly inhibits; also recorded: minor effect” and the “inhibition of binding of melanoma cells to vitronectin” value is “significantly inhibits”. In addition, the 50% inhibitory concentration (IC50) at αvβ3 integrin was 215 nM. In addition, the IC50 at αvβ5 integrin is 9900 nM.
As for `N=C(N)NCCCc1cn(CC(=O)NC(CC(=O)O)c2ccc(F)cc2)nn1` (centres unmarked) [Compound 49], at αvβ3 integrin, the half-maximal inhibitory concentration (IC50) was found to be 101 nM.
On to `Cc1ccc(S(=O)(=O)N(CCn2cc(CCNC(=N)N)nn2)CC(=O)O)cc1` [Compound 52], for which, on αvβ3 integrin (1 μM concentration), the inhibition at 1 µM came out at 54%. Moreover, at αvβ3 integrin (10 μM concentration), the inhibition at 10 µM worked out at 77%.
For `N=C(N)NCCCc1cn(CC(=O)N[C@@H](CC(=O)O)c2ccc(O)cc2)nn1` [Compound 54], the half-maximal inhibitory concentration (IC50) at αvβ3 integrin worked out at 2100 nM.
For the molecule `N=C(N)NCCCc1cn(CC(=O)NCCC(=O)O)nn1` [Compound 55], the IC50 at αvβ3 integrin amounted to 13 nM.
The same measure, in the same setting: the same measure for `O=C(O)C[C@H](NC(=O)Cn1cc(CCCNCc2nc3ccccc3[nH]2)nn1)c1ccc(F)cc1` [Compound 57]: 200 nM; for `N=C(NCCCc1cn(CC(=O)N[C@@H](CC(=O)O)c2ccccc2)nn1)NCCc1ccc(O)cc1` [Compound 59]: 308 nM.

In general, IC50 refers to the concentration that inhibits the measured activity by half. As a reminder, the inhibition is the drop in the measured response relative to a control, in per cent.
